# Results from patent US8895559B2, “Quinoxalines derivatives and pharmaceutical compositions and kits” (Merck Patent GmbH, priority 2010, dated 2014).
# pIC50: −log10 of the molar value.
# System: PI3K
# Assay: Cellular testing of PI3K inhibitors: P-S473-PKB Luminex assay in PC3 cells
# Assay type: cell-based
# Details: PI3 kinase inhibition, cell
# Description: Description of the Method for the Cellular Testing of PI3K Inhibitors
# The cellular assay for determination of the P-S473-PKB level is carried out as a Luminex assay in 96-well format in PC3 cells.
# PC3 cells are sown out with 20,000 cells per well in 100 μl medium (45% RPMI1460/45% Ham's F12/10% FCS) and incubated on the following day for 30 min with a serial dilution of the test substance (7 concentrations) under serum-free conditions. […] The lysates are incubated overnight at 4° C. with shaking with Luminex beads to which an anti-total PKB antibody is coupled. The detection is carried out on the following day by addition of a P-S473-PKB antibody and a species-specific PE-labelled secondary antibody. The detection of P-S473-PKB is carried out by measurement in a Luminex 100 instrument by determination of 100 events per cavity in a measurement time of 60 sec. […] The values of the preparations treated with test substance are calculated from this as percent of control, and IC50 values are determined by means of RS1.
row,SMILES,pIC50
1,COc1cc(Nc2nc3ccccc3nc2NS(=O)(=O)c2ccc(F)c(F)c2)c(OCCOCCO)c(OC)c1 [Compound A73],5.00 to 7.00
2,COc1cc(Nc2nc3ccccc3nc2NS(=O)(=O)c2cn(C)cn2)c(OCC(O)CO)c(OC)c1 (centres unmarked) [Compound A75],5.00 to 7.00
3,COc1cc(Nc2nc3ccccc3nc2NS(=O)(=O)c2cn(C)cn2)c(OCCS(=O)(=O)CCO)c(OC)c1 [Compound A77],5.00 to 7.00
4,COc1cc(Nc2nc3ccccc3nc2NS(=O)(=O)c2cccnc2)c(OCCCO)c(OC)c1 [Compound A79],5.00 to 7.00
5,COc1cc(Nc2nc3ccccc3nc2NS(=O)(=O)c2cn(C)cn2)c(OCCOCCO)c(OC)c1 [Compound A81],5.00 to 7.00
6,COc1cc(Nc2nc3ccccc3nc2NS(=O)(=O)c2ccc(C(=O)N(C)C)cc2)c(OC)c(OC)c1 [Compound A90],5.00 to 7.00
7,COc1cc(Nc2nc3ccccc3nc2NS(=O)(=O)c2cn(C)cn2)c(OC)c(OC)c1 [Compound A92],5.00 to 7.00
8,COc1cc(Nc2nc3ccccc3nc2NS(=O)(=O)c2ccc(C(=O)NCC(F)F)cc2)c(OCCCO)c(OC)c1 [Compound A93],5.00 to 7.00
9,COc1cc(Nc2nc3ccccc3nc2NS(=O)(=O)c2cn(C)c(CN(C)C)n2)c(CCCCO)c(OC)c1 [Compound A94],5.00 to 7.00
10,COc1cc(Nc2nc3ccccc3nc2NS(=O)(=O)c2ccc(C(=O)NCC(F)(F)F)cc2)c(OCCCO)c(OC)c1 [Compound A95],5.00 to 7.00
11,COc1cc(Nc2nc3ccccc3nc2NS(=O)(=O)CCC#N)c(OCCCO)c(OC)c1 [Compound A96],5.00 to 7.00
12,COc1cc(Nc2nc3ccccc3nc2NS(=O)(=O)c2cccc(C(=O)N(C)C)c2)c(OCCCO)c(OC)c1 [Compound A97],5.00 to 7.00
13,COc1cc(Nc2nc3ccccc3nc2NS(=O)(=O)c2ccc(C(=O)N3CC(F)(F)C3)cc2)c(OCCCO)c(OC)c1 [Compound A98],5.00 to 7.00
14,COc1cc(Nc2nc3ccccc3nc2NS(=O)(=O)c2cccc(C(=O)NCC(F)(F)F)c2)c(OCCCO)c(OC)c1 [Compound A105],5.00 to 7.00
15,COc1cc(Nc2nc3ccccc3nc2NS(=O)(=O)c2cccc(C(=O)N3CC(F)(F)C3)c2)c(OCCCO)c(OC)c1 [Compound A107],5.00 to 7.00
16,COc1cc(Nc2nc3ccccc3nc2NS(=O)(=O)c2cccc(C(=O)N3CCC3)c2)c(OCCCO)c(OC)c1 [Compound A108],5.00 to 7.00
17,"COc1cc(Nc2nc3ccccc3nc2NS(=O)(=O)c2ccc(CN3CC(F)(F)C3)cc2)c(OCCCO)c(OC)c1 [Compound A110, 4-(3,3-Difluoroazetidin-1-ylmethyl)-N-{3-[2-(3-hydroxypropoxy)-3,5-dimethoxyphenylamino]-quinoxalin-2-yl}benzenesulfonamide]",7.00 to 9.00
18,"COc1cc(Nc2nc3ccccc3nc2NS(=O)(=O)c2ccc(CN3CCC3)cc2)c(OCCCO)c(OC)c1 [Compound A111, 4-Azetidin-1-ylmethyl-N-{3-[2-(3-hydroxypropoxy)-3,5-dimethoxyphenylamino]-quinoxalin-2-yl}-benzenesulfonamide]",5.00 to 7.00
19,COc1cc(Nc2nc3ccccc3nc2NS(=O)(=O)c2ccn(C)n2)c(OCCOCCO)c(OC)c1 [Compound A112],5.00 to 7.00

row,SMILES,pIC50
1,COc1cc(Nc2nc3ccccc3nc2NS(=O)(=O)c2cn(C)c(CN(C)C)n2)c(OCCCCO)c(OC)c1 [Compound A113],5.00 to 7.00
2,COc1cc(Nc2nc3ccccc3nc2NS(=O)(=O)C(F)F)c(OCCCO)c(OC)c1 [Compound A114],5.00 to 7.00
3,COc1cc(Nc2nc3ccccc3nc2NS(=O)(=O)C(F)F)c(OCCC(C)O)c(OC)c1 (centres unmarked) [Compound A115],7.00 to 9.00
4,"COc1cc(Nc2nc3ccccc3nc2NS(=O)(=O)c2cccc(CN3CCC3)c2)c(OCCCO)c(OC)c1 [Compound A116, 3-Azetidin-1-ylmethyl-N-{3-[2-(3-hydroxypropoxy)-3,5-dimethoxyphenylamino]-quinoxalin-2-yl}-benzenesulfonamide]",7.00 to 9.00
5,COc1cc(Nc2nc3ccccc3nc2NS(=O)(=O)c2ccn(C)n2)c(CCCCO)c(OC)c1 [Compound A117],7.00 to 9.00
6,"COc1cc(Nc2nc3ccccc3nc2NS(=O)(=O)c2ccn(C(F)(F)C(=O)N(C)C)n2)c(OCCC(C)O)c(OC)c1 (centres unmarked) [Compound A118, 2,2-difluoro-2-(3-{3-[2-(3-hydroxybutoxy)-3,5-dimethoxy-phenylamino]-quinoxalin-2-ylsulfamoyl}pyrazol-1-yl)-N,N-dimethylacetamide]",5.00 to 7.00
7,COc1cc(Nc2nc3ccccc3nc2NS(=O)(=O)c2ccn(C(F)(F)C(=O)N(C)C)n2)c(OCCCO)c(OC)c1 [Compound A119],5.00 to 7.00
8,COc1cc(Nc2nc3ccccc3nc2NS(=O)(=O)c2ccn(CC(=O)N(C)C)n2)c(OCCC(C)O)c(OC)c1 (centres unmarked) [Compound A120],7.00 to 9.00
9,COc1cc(Nc2nc3ccccc3nc2NS(=O)(=O)c2ccn(C)n2)c(OC)c(OC)c1 [Compound A121],7.00 to 9.00
10,COc1cc(Nc2nc3ccccc3nc2NS(=O)(=O)c2ccn(CC(=O)N(C)C)n2)c(OCCCO)c(OC)c1 [Compound A122],7.00 to 9.00
11,CCN(CC)Cc1nc(S(=O)(=O)Nc2nc3ccccc3nc2Nc2cc(OC)cc(OC)c2OCCC(C)O)cn1C (centres unmarked) [Compound A123],5.00 to 7.00
12,COc1cc(Nc2nc3ccccc3nc2NS(=O)(=O)c2cn(C)cn2)c2c(c1)OC(CO)CO2 (centres unmarked) [Compound A124],5.00 to 7.00
13,COc1cc(Nc2nc3ccccc3nc2NS(=O)(=O)c2ccn(C)n2)c(OCCC(C)(C)O)c(OC)c1 [Compound A125],7.00 to 9.00
14,CCN(CC)Cc1nc(S(=O)(=O)Nc2nc3ccccc3nc2Nc2cc(OC)cc(OC)c2OCCCO)cn1C [Compound A126],5.00 to 7.00
15,COc1cc(Nc2nc3ccccc3nc2NS(=O)(=O)c2cn(C)cn2)c2c(c1)OCC(CO)O2 (centres unmarked) [Compound A127],5.00 to 7.00
16,COc1cc(Nc2nc3ccccc3nc2NS(=O)(=O)c2cn(C)c(CN(C)C)n2)c(OCCC(C)(C)O)c(OC)c1 [Compound A128],5.00 to 7.00
17,"COc1cc(Nc2nc3ccccc3nc2NS(=O)(=O)c2ccn(CCN(C)C)n2)c(OCCC(C)O)c(OC)c1 (centres unmarked) [Compound A129, 1-(2-Dimethylaminoethyl)-1H-pyrazole-3-sulfonic acid {3-[2-(3-hydroxybutoxy)-3,5-dimethoxy-phenylamino]quinoxalin-2-yl} amide]",7.00 to 9.00
18,"COc1cc(Nc2nc3ccccc3nc2NS(=O)(=O)c2ccn(CCN(C)C)n2)c(OCCCO)c(OC)c1 [Compound A130, 1-(2-Dimethylaminoethyl)-1H-pyrazole-3-sulfonic acid {3-[2-(3-hydroxypropoxy)-3,5-dimethoxy-phenylamino]quinoxalin-2-yl} amide]",7.00 to 9.00
19,COc1cc(Nc2nc3ccccc3nc2NS(=O)(=O)c2ccn(CC(=O)N(C)C)n2)c(OC)c(OC)c1 [Compound A131],7.00 to 9.00

# Second part, the compound after the results:
row,pIC50,SMILES
1,7.00 to 9.00,COc1cc(Nc2nc3ccccc3nc2NS(=O)(=O)c2ccc(F)c(F)c2)c(OCCCO)c(OC)c1 [Compound A71]
2,7.00 to 9.00,COc1cc(Nc2nc3ccccc3nc2NS(=O)(=O)c2ccc(C#N)cc2)c(OCC[S+]([O-])CCO)c(OC)c1 (centres unmarked) [Compound A72]
3,7.00 to 9.00,COc1cc(Nc2nc3ccccc3nc2NS(=O)(=O)c2ccc(C#N)cc2)c(OCC(O)CO)c(OC)c1 (centres unmarked) [Compound A74]
4,7.00 to 9.00,COc1cc(Nc2nc3ccccc3nc2NS(=O)(=O)c2ccc(C#N)cc2)c(OCCS(=O)(=O)CCO)c(OC)c1 [Compound A76]
5,7.00 to 9.00,COc1cc(Nc2nc3ccccc3nc2NS(=O)(=O)c2ccc(C#N)cc2)c(OCCN(C)CCO)c(OC)c1 [Compound A78]
6,7.00 to 9.00,COc1cc(Nc2nc3ccccc3nc2NS(=O)(=O)c2ccc(C#N)cc2)c(OCCOCCO)c(OC)c1 [Compound A80]
7,7.00 to 9.00,COc1cc(Nc2nc3ccccc3nc2NS(=O)(=O)c2ccc(C#N)cc2)c(OCCCO)c(OC)c1 [Compound A82]
8,7.00 to 9.00,COc1cc(Nc2nc3ccccc3nc2NS(=O)(=O)c2cn(C)cn2)c(OCCCO)c(OC)c1 [Compound A86]
9,7.00 to 9.00,COc1cc(Nc2nc3ccccc3nc2NS(=O)(=O)c2cn(C)cn2)c(OCCO)c(OC)c1 [Compound A89]
10,7.00 to 9.00,COc1cc(Nc2nc3ccccc3nc2NS(=O)(=O)c2ccc(C#N)cc2)c(OC)c(OC)c1 [Compound A91]
11,7.00 to 9.00,COc1cc(Nc2nc3ccccc3nc2NS(C)(=O)=O)c(OCCC(C)O)c(OC)c1 (centres unmarked) [Compound A99]
12,7.00 to 9.00,COc1cc(Nc2nc3ccccc3nc2NS(=O)(=O)c2ccn(C)n2)c(OCCC(C)O)c(OC)c1 (centres unmarked) [Compound A100]
13,7.00 to 9.00,COc1cc(Nc2nc3ccccc3nc2NS(=O)(=O)c2cncs2)c(OCCC(C)O)c(OC)c1 (centres unmarked) [Compound A101]
14,7.00 to 9.00,COc1cc(Nc2nc3ccccc3nc2NS(=O)(=O)c2ccc(C(=O)N3CCC3)cc2)c(OCCCO)c(OC)c1 [Compound A102]
15,7.00 to 9.00,COc1cc(Nc2nc3ccccc3nc2NS(=O)(=O)c2cnn(C(F)F)c2)c(OCCC(C)O)c(OC)c1 (centres unmarked) [Compound A103]
16,7.00 to 9.00,COc1cc(Nc2nc3ccccc3nc2NS(=O)(=O)N(C)C)c(OCCCO)c(OC)c1 [Compound A104]
17,7.00 to 9.00,"COc1cc(Nc2nc3ccccc3nc2NS(=O)(=O)c2ccc(CN)cc2)c(OCCCO)c(OC)c1 [Compound A106, 4-aminomethyl-N-{3-[2-(3-hydroxypropoxy)-3,5-dimethoxy-phenylamino]-quinoxalin-2-yl}benzenesulfonamide]"
18,7.00 to 9.00,"COc1cc(Nc2nc3ccccc3nc2NS(=O)(=O)c2cccc(CN(C)C)c2)c(OCCCO)c(OC)c1 [Compound A109, 3-Dimethylaminomethyl-N-{3-[2-(3-hydroxy-propoxy)-3,5-dimethoxyphenylamino]quinoxalin-2-yl}benzenesulfonamide]"
